{
  "source": "patent US20250163370A1",
  "about": "“METHOD FOR INDUCING DIFFERENTIATION OF PLURIPOTENT STEM CELLS INTO RETINAL PIGMENT […]” (OSAKA UNIVERSITY, priority 2022, published 2025)",
  "tested_on": "Human skin-derived iPS cells (253G1)",
  "assay_type": "cell-based",
  "note": "“Also recorded” adds a separate entry of the source.",
  "data": [
    {"substance": "hemagglutinin [HA complex]", "values": [
      {"measurement": "differentiation into other cells (RPE cell versus cell group with fibroblast-like morphology)", "result": "<<cell group; also recorded: <cell group"},
      {"measurement": "formation of cell aggregates in three-dimensional layer structure", "result": "small cell; also recorded: smaller cell"},
      {"measurement": "intercellular adhesion of the cell aggregates", "result": "moderately loosened"},
      {"measurement": "number of cells that differentiated into RPE cells", "result": "increased strikingly"},
      {"measurement": "number of fibroblast-like cell groups (undesired cells observed together with RPE cells)", "result": "decreased"},
      {"measurement": "size of the cell aggregates", "result": "became smaller"}
    ]}
  ]
}
